Each structure is given as a SMILES string.

In turn, `C[C@H](CO)Nc1nc(SCc2cccc(F)c2F)nc2cnc(-n3ccnc3)cc12` [Compound 16b, (2R)-2-[(6-Imidazolyl-2-(2,3-difluorobenzylmercapto)-pyrido[3,4-d]pyrimidine-4-yl)amino]propanol] displayed a melting point of 245 to 247 °C.

In the case of `C[C@H](CO)Nc1nc(SCc2cccc(F)c2F)nc2cnc(Cl)cc12` [Compound 16a, (2R)-2-[(6-Chloro-2-(2,3-difluorobenzylmercapto)-pyrido[3,4-d]pyrimidine-4-yl)amino]propanol], the melting point was in the range of 211 to 213 °C.

The compound `C[C@H](CO)Nc1nc(OCc2cccc(F)c2F)nc2cnccc12` [Compound 26b, (2R)-2-[(2-(2,3-Difluorobenzyloxy)-pyrido[3,4-d]pyrimidine-4-yl)amino]propanol] showed a melting point of 167 to 169 °C.

For the compound `C[C@H](CO)Nc1nc(SCc2cccc(F)c2F)nc2cnc(N)cc12` [Compound 21, (2R)-2-[(6-Amino-2-(2,3-difluorobenzylmercapto)-pyrido[3,4-d]pyrimidine-4-yl)amino]propanol], the melting point lay in the range of 174 to 176 °C.

`C[C@H](CO)Nc1nc(SCc2cccc(F)c2F)nc2cnc(-c3ccccc3)cc12` [Compound 17a, (2R)-2-[(2-(2,3-Difluorobenzylmercapto)-6-phenyl-pyrido[3,4-d]pyrimidine-4-yl)amino]propanol] showed a melting point of 202 to 204 °C.

In the case of `C[C@H](CO)Nc1nc(NCc2cccc(F)c2F)nc2cnccc12` [Compound 26a, (2R)-2-[(2-(2,3-Difluorobenzylamino)-pyrido[3,4-d]pyrimidine-4-yl)amino]propanol], the melting point was 136 to 140 °C.

Compound `OCC(O)CNc1nc(SCc2cccc(F)c2F)nc2cnccc12` (stereo not drawn) [Compound 24c, 3-[(2-(2,3-Difluorobenzylmercapto)-pyrido[3,4-d]pyrimidine-4-yl)amino]propan-1,2-diol] came in with a melting point of 156 to 158 °C.

`C[C@H](CO)Nc1nc(SCc2cccc(F)c2F)nc2cnc(-c3cccs3)cc12` [Compound 17d, (2R)-2-[(2-(2,3-Difluorobenzylmercapto)-6-(2-thienyl)-pyrido[3,4-d]pyrimidine-4-yl)amino]propanol] gave a melting point of 176 to 178 °C.

On to `C[C@H](CO)Nc1nc(SCCc2ccccc2)nc2cnccc12` [Compound 26d, (2R)-2-[(2-(Phenylethylmercapto)-pyrido[3,4-d]pyrimidine-4-yl)amino]propanol], for which the melting point was in the range of 182 to 184 °C.

Compound `Cc1ccc(-c2cc3c(N[C@H](C)CO)nc(SCc4cccc(F)c4F)nc3cn2)o1` [Compound 17c, (2R)-2-[(2-(2,3-Difluorobenzylmercapto)-6-(5-methylfuran-2-yl)-pyrido[3,4-d]pyrimidine-4-yl)amino]propanol] displayed a melting point of 162 to 164 °C.

`OCCOc1nc(SCc2cccc(F)c2F)nc2cnccc12` [Compound 24e, 3-[(2-(2,3-Difluorobenzylmercapto)-pyrido[3,4-d]pyrimidine-4-yl)oxy]ethanol]: the melting point fell in the range of 181 to 183 °C.

Compound `OCCNc1nc(SCc2cccc(F)c2F)nc2cnccc12` [Compound 24d, 3-[(2-(2,3-Difluorobenzylmercapto)-pyrido[3,4-d]pyrimidine-4-yl)amino]ethanol] yielded a melting point of 181 to 183 °C.

For `CCCCCCSc1nc(N[C@H](C)CO)c2ccncc2n1` [Compound 26e, (2R)-2-[(2-(Hexylmercapto)-pyrido[3,4-d]pyrimidine-4-yl)amino]propanol], the melting point lay within 147 to 149 °C.

The compound `CC(C)(CO)Nc1nc(SCc2cccc(F)c2F)nc2cnccc12` [Compound 24b, 2-[(2-(2,3-Difluorobenzylmercapto)-pyrido[3,4-d]pyrimidine-4-yl)amino]-2-methyl-propan-1-ol] had a melting point of 166 to 168 °C.

`C[C@H](CO)Nc1nc(Sc2ccccc2)nc2cnccc12` [Compound 26c, (2R)-2-[(2-(Phenylmercapto)-pyrido[3,4-d]pyrimidine-4-yl)amino]propanol] came in with a melting point of 193 to 196 °C.

In turn, `C[C@H](CO)Nc1nc(SCc2cccc(F)c2F)nc2cncc(Cl)c12` [Compound 9, (2R)-2-[(5-Chloro-2-(2,3-difluorobenzylmercapto)-pyrido[3,4-d]pyrimidine-4-yl)amino]propanol] came in with a melting point of 146 to 148 °C.

`C[C@H](CO)Nc1nc(SCc2cccc(F)c2F)nc2cnc(-c3ccco3)cc12` [Compound 17b, (2R)-2-[(2-(2,3-Difluorobenzylmercapto)-6-(2-furanyl)-pyrido[3,4-d]pyrimidine-4-yl)amino]propanol] yielded a melting point of 163 to 165 °C.

In turn, `CC[C@H](CO)Nc1nc(SCc2cccc(F)c2F)nc2cnccc12` [Compound 24a, (2R)-2-[(2-(2,3-Difluorobenzylmercapto)-pyrido[3,4-d]pyrimidine-4-yl)amino]butanol] gave a melting point of 174 to 176 °C.
